In patent publication US7419965B2, “Nucleotide lipid ester derivatives” (Heidelberg Pharma AG, priority 2003, dated 2008):

Legend:
Parameters in all cases: species or system nude mice
[1] = tested on: human breast carcinoma xenograft MDA-MB-231; experiment: Antitumor activity in human breast carcinoma xenograft model (MDA-MB-231) in vivo; conditions: for Tumor inhibition: day 49, vs vehicle control; for Tumor volume (median): orally once daily days 21-25 and 28-32, day 49
Procedure: The antitumor activity of nucleotide conjugate and its corresponding nucleoside has been compared in the human breast carcinoma xenograft MDA-MB-231 model in nude mice.
Tumor bearing mice were randomized on day 21 after MDA-MB-231 tumor cell inoculation and were distributed to treatment groups of 9 animals per group. Treatment was started on day 21. At this time point the animals had well vascularized tumors of about 400 mg. The animals were treated orally once daily for 2 weeks with nucleotide conjugate and its corresponding nucleoside on days 21-25 and 28-32. Doses ranged from 6.25% to 50% of the Maximum Tolerable Doses (MTD's). Control animals were treated with the solvent (vehicle) only. […]

[2] = tested on: human prostate carcinoma xenograft PC-3; experiment: Antitumor activity in human prostate carcinoma xenograft model (PC-3) in vivo; conditions: for Tumor inhibition: day 52, vs vehicle control; for Tumor weight (median): ip once daily for 5 days from day 7, day 52
Procedure: The antitumor activity of nucleoside conjugate and nucleoside has been compared in the human prostate carcinoma xenograft PC-3 model in nude mice.
Tumor bearing mice were randomized on day 7 after PC-3 tumor cell inoculation and were distributed to treatment groups of n=10 animals per group. Treatment was started on day 7. The animals were treated intraperitoneally (ip) once daily for 5 consecutive days with nucleotide conjugate or nucleoside. Dosages included 100 and 50% of the Maximum Tolerable Doses (MTD's). Control animals were treated with the corresponding solvent (vehicle) only. On day 52, the primary tumors were explanted and the tumor weights were determined.
(§1) Tumor bearing mice were distributed to treatment groups of 9-10 animals per group. Treatment Treatment cycle(s)(one or two) were performed consisting of once daily intraperitoneal administrations for 5 consecutive days. Dosages were in the range of 6.25% and 100% of the Maximum Tolerated Doses (MTD's). Control animals were treated with solvent (vehicle) only, The percentage of tumor inhibition refers to the median tumor size of the vehicle treated control group and dose groups at the end of each experiment.

[3] = tested on: human colon carcinoma xenograft HCT-15; experiment: Antitumor activity in human colon carcinoma xenograft model (HCT-15) in vivo; conditions: for Tumor weight (median): ip once daily for 5 days from day 8, day 28; for Tumor inhibition: ip once daily for 5 days, day 28, vs vehicle control
Procedure: The antitumor activity of the nucleotide conjugate and its corresponding nucleoside has been compared in the human colon carcinoma xenograft HCT-15 model in nude mice.
Tumor bearing mice were randomized on day 7 after HCT-15 tumor cell inoculation and were distributed to treatment groups of 9 animals per group. Treatment was started on day 8. The animals were treated intraperitoneally (ip) once daily for 5 consecutive days with the nucleotide conjugate or the nucleoside. Dosages included 50 and 25% of the Maximum Tolerable Doses (MTD′s). Control animals were injected with the corresponding solvents (Vehicle 1 or 2). On day 28, the primary tumors were explanted and the tumor weights were determined.
as §1

[4] = tested on: human cervix carcinoma xenograft KB-3-1; experiment: Antitumor activity in human cervix carcinoma xenograft model (KB-3-1) in vivo; conditions: for Tumor inhibition: day 29, vs vehicle control; for Tumor volume (median): ip once daily days 8-12, day 29
Procedure: The antitumor activity of nucleotide conjugate and nucleoside has been compared in the human cervix carcinoma xenograft KB-3-1 model in nude mice.
Tumor bearing mice were randomized on day 8 after KB-3-1 tumor cell inoculation and were distributed to treatment groups of 9 animals per group. Treatment was started on day 8. The animals were treated intraperitoneally (ip) once daily for 5 consecutive days (days 8-12) with nucleotide conjugate or nucleoside. Dosages included 100 and 50% of the Maximum Tolerable Doses (MTD's). Control animals were injected with solvent (Vehicle).
as §1

[5] = tested on: human pancreatic carcinoma xenograft AspC1; experiment: Antitumor activity in human pancreatic carcinoma xenograft model (AspC1) in vivo; conditions: for Tumor inhibition: day 30, vs vehicle control; for Tumor weight (median): ip once daily day 6-10 and 20-23, day 30
Procedure: The antitumor activity of nucleotide conjugate and nucleoside has been compared in the human pancreatic carcinoma xenograft AspC1 model in nude mice.
(§2) Tumor bearing mice were randomized on day 6 after AspC1 tumor cell inoculation and were distributed to treatment groups of 10 animals per group. Treatment was started on day 6. The animals were treated intraperitoneally (ip) once daily on day 6-10 and 20-23 with nucleotide conjugate or nucleoside. Dosages included 100 and 50% of the Maximum Tolerable Doses (MTD's). Control animals were treated with solvent (vehicle) only.
as §1

[6] = tested on: human ovarian carcinoma xenograft SKOV-3; experiment: Antitumor activity in human ovarian carcinoma xenograft model (SKOV-3) in vivo; conditions: for Tumor inhibition: end of treatment period (day 17), vs vehicle control; for Tumor volume (median): ip once daily day 6-10 and 13-17, end of treatment (day 17)
Procedure: The antitumor activity of nucleotide conjugate and nucleoside has been compared in the human ovarian carcinoma xenograft SKOV-3 model in nude mice.
as §2, with “after SKOV-3” for “after AspC1”, “of 9” for “of 10”, “and 13-17” for “and 20-23”, “Dosages ranged between 6.25” for “Dosages included 100”, “and 100%” for “and 50%”
as §1

[7] = 6.25% MTD (nucleoside 2.5, conjugate 12.5 mg/kg)
[8] = 12.50% MTD (nucleoside 5.0, conjugate 25.0 mg/kg)
[9] = 25.00% MTD (nucleoside 10.0, conjugate 50.0 mg/kg)
[10] = 50.00% MTD (nucleoside 20.0, conjugate 100.0 mg/kg)
[11] = 50% MTD (nucleoside 20, conjugate 50 mg/kg/injection)
[12] = 100% MTD (nucleoside 40, conjugate 100 mg/kg/injection)
[13] = 25% MTD (nucleoside 20, conjugate 63 mg/kg/injection)
[14] = 50% MTD (nucleoside 40, conjugate 125 mg/kg/injection)
[15] = HCT-15, Dose 50.00 % MTD as printed in summary table
[16] = HCT-15, Dose 100.00 % MTD as printed in summary table
[17] = 50% MTD (nucleoside 15.0, conjugate 37.5 mg/kg/injection)
[18] = 100% MTD (nucleoside 30.0, conjugate 75.0 mg/kg/injection)
[19] = 25% MTD (nucleoside 7.5, conjugate 18.8 mg/kg/injection)

Nc1nc(Cl)nc2c1ncn2[C@@H]1O[C@H](CO)[C@@H](O)[C@@H]1F [Nucleoside, 2-Chloro-9-(2′-deoxy-2′-fluoro-β-D arabinofuranosyl)adenine, reference compound]
Tumor inhibition [1, 7]: 46% | Tumor volume (median) [1, 7]: 1862 mm^3 | Tumor inhibition [1, 8]: 84% | Tumor volume (median) [1, 8]: 550 mm^3 | Tumor inhibition [1, 9]: 95% | Tumor volume (median) [1, 9]: 172 mm^3 | Tumor inhibition [1, 10]: 97% | Tumor volume (median) [1, 10]: 108 mm^3 | Tumor inhibition [2, 11]: 40% | Tumor weight (median) [2, 11]: 303 mg | Tumor inhibition [2, 12]: 60% | Tumor weight (median) [2, 12]: 202 mg | Tumor weight (median) [3, 13]: 431 mg | Tumor inhibition [3, 13]: 25% | Tumor weight (median) [3, 14]: 329 mg | Tumor inhibition [3, 14]: 42% | Tumor inhibition (summary table) [3, 15]: 25% | Tumor inhibition (summary table) [3, 16]: 42% | Tumor inhibition [4, 11]: 68% | Tumor volume (median) [4, 11]: 1059 mm^3 | Tumor inhibition [4, 12]: 49% | Tumor volume (median) [4, 12]: 1705 mm^3 | Tumor inhibition [5, 17]: 30% | Tumor weight (median) [5, 17]: 160 mg | Tumor inhibition [5, 18]: 35% | Tumor weight (median) [5, 18]: 150 mg | Tumor inhibition [6, 19]: 37% | Tumor volume (median) [6, 19]: 162 mm^3 | Tumor inhibition [6, 17]: 58% | Tumor volume (median) [6, 17]: 108 mm^3 | Tumor inhibition [6, 18]: 51% | Tumor volume (median) [6, 18]: 126 mm^3

CCCCCCCCCCCCSCC(COP(=O)(O)OC[C@H]1O[C@@H](n2cnc3c(N)nc(Cl)nc32)[C@@H](F)[C@@H]1O)OCCCCCCCCCC (stereo partly drawn) [Nucleotide conjugate, [2-Chloro-9-(2′-deoxy-2′-fluoro-β-D arabinofuranosyl)adenine]-5′-phosphoric acid-(3-dodecylmercapto-2-decyloxy)propyl ester]
Tumor inhibition [1, 7]: 63% | Tumor volume (median) [1, 7]: 1267 mm^3 | Tumor inhibition [1, 8]: 94% | Tumor volume (median) [1, 8]: 196 mm^3 | Tumor inhibition [1, 9]: 97% | Tumor volume (median) [1, 9]: 108 mm^3 | Tumor inhibition [1, 10]: 99% | Tumor volume (median) [1, 10]: 51 mm^3 | Antitumor efficacy compared with the corresponding nucleoside ([1]; at all doses): significantly (p <0.05) higher | Activity relative to nucleoside (conclusion) ([1]; conclusion of summary, MDA-MB-231): Superior activity | Tumor inhibition [2, 11]: 82% | Tumor weight (median) [2, 11]: 92 mg | Tumor inhibition [2, 12]: 87% | Tumor weight (median) [2, 12]: 64 mg | Antitumor efficacy compared with Nucleoside ([2]; at both doses): significantly higher (p<0.01) | Activity relative to nucleoside (conclusion) ([2]; conclusion of summary, PC-3): Superior activity | Tumor weight (median) [3, 13]: 257 mg | Tumor inhibition [3, 13]: 62% | Tumor weight (median) [3, 14]: 16 mg | Tumor inhibition [3, 14]: 98% | Tumor inhibition (summary table) [3, 15]: 62% | Tumor inhibition (summary table) [3, 16]: 98% | Antitumor efficacy compared with the corresponding nucleoside ([3]; at both doses): significantly (p<0.01) higher | Activity relative to nucleoside (conclusion) ([3]; conclusion of summary, human colon carcinoma xenograft): Superior activity | Tumor inhibition [4, 11]: 74% | Tumor volume (median) [4, 11]: 877 mm^3 | Tumor inhibition [4, 12]: 97% | Tumor volume (median) [4, 12]: 104 mm^3 | Antitumor efficacy compared with Nucleoside ([4]; at the MTD): significantly higher (p<0.01) | Activity relative to nucleoside (conclusion) ([4]; conclusion of summary, KB-3-1): Superior activity | Tumor inhibition [5, 17]: 65% | Tumor weight (median) [5, 17]: 80 mg | Tumor inhibition [5, 18]: 96% | Tumor weight (median) [5, 18]: 10 mg | Antitumor efficacy compared with Nucleoside ([5]; at both doses): significantly higher (p<0.01) | Activity relative to nucleoside (conclusion) ([5]; conclusion of summary, AspC1): Superior activity | Tumor inhibition [6, 19]: 44% | Tumor volume (median) [6, 19]: 144 mm^3 | Tumor inhibition [6, 17]: 58% | Tumor volume (median) [6, 17]: 108 mm^3 | Tumor inhibition [6, 18]: 75% | Tumor volume (median) [6, 18]: 63 mm^3 | Antitumor efficacy compared with the nucleoside ([6]; at MTD): significantly higher (p<0.01) | Activity relative to nucleoside (conclusion) ([6]; conclusion of summary, SKOV-3): Superior activity
